Test results as given in PubChem BioAssay AID330 (DTP/NCI, 2004).
“And” between values parts separate entries of the source, which are not always exact repeats. Equal values may be shown once. Inconclusive results and toxic doses are left out.

System: P388 leukemia ip, CD2F1 mice, survival T/C
Assay: NCI In Vivo Anticancer Drug Screen. Data for tumor model P388 Leukemia (intraperitoneal) in CD2F1 (CDF1) mice
Settings: endpoint: median survival time, higher = longer survival
Method in brief: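 Mice carrying the transplanted tumor received test compound or vehicle. Survival was recorded in each group, and the value is the treated-group measurement divided by that of the vehicle-treated control group.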

[1] = dose: 12.5 mg/kg/injection, schedule: Q01DX005 (ip), vehicle: Klucel (hydroxypropylcellulose) (HPC)
[2] = dose: 25.0 mg/kg/injection, schedule: Q01DX005 (ip), vehicle: Klucel (hydroxypropylcellulose) (HPC)
[3] = dose: 50.0 mg/kg/injection, schedule: Q01DX005 (ip), vehicle: Klucel (hydroxypropylcellulose) (HPC)
[4] = dose: 50.0 mg/kg/injection, schedule: Q01DX009 (ip), vehicle: Klucel (hydroxypropylcellulose) (HPC)
[5] = dose: 100.0 mg/kg/injection, schedule: Q01DX009 (ip), vehicle: Klucel (hydroxypropylcellulose) (HPC)
[6] = dose: 200.0 mg/kg/injection, schedule: Q01DX009 (ip), vehicle: Klucel (hydroxypropylcellulose) (HPC)
[7] = dose: 25.0 mg/kg/injection, schedule: Q04DX003 (ip), vehicle: saline with Tween-80
[8] = dose: 50.0 mg/kg/injection, schedule: Q04DX003 (ip), vehicle: saline with Tween-80
[9] = dose: 50.0 mg/kg/injection, schedule: Q01DX009 (ip), vehicle: saline
[10] = dose: 100.0 mg/kg/injection, schedule: Q01DX009 (ip), vehicle: saline
[11] = dose: 200.0 mg/kg/injection, schedule: Q01DX009 (ip), vehicle: saline
[12] = dose: 60.0 mg/kg/injection, schedule: Q01DX005 (ip), vehicle: saline with Tween-80
[13] = dose: 100.0 mg/kg/injection, schedule: Q01DX005 (ip), vehicle: Klucel (hydroxypropylcellulose) (HPC)
[14] = dose: 200.0 mg/kg/injection, schedule: Q01DX005 (ip), vehicle: Klucel (hydroxypropylcellulose) (HPC)

With `Cc1ccc[n+](Cc2ccccc2Cl)c1` the T/C [1] was 113 % of control, the T/C [2] was 113 % of control and the T/C [3] was 101 % of control.

`CCC(=O)C(=O)c1ccc(O)cc1O` was tested, and the T/C [4] was 108 % of control, the T/C [5] was 108 % of control and the T/C [6] was 105 % of control.

In the case of `Cn1cnc2ncnc(NCc3ccccc3Cl)c21`, the T/C (dose: 6.25 mg/kg/injection, schedule: Q04DX003 (ip), vehicle: saline with Tween-80) is reported as 93 % of control, the T/C (dose: 12.5 mg/kg/injection, schedule: Q04DX003 (ip), vehicle: saline with Tween-80) is reported as 94 % of control and the T/C [7] is reported as 94 % of control. The T/C [8] was 91 % of control.

With `CN(CC(=O)O)c1ccc(/C=C/c2ccnc3ccccc23)cc1` the T/C (dose: 50.0 mg/kg/injection, schedule: Q01DX001 (ip), vehicle: saline with Tween-80) was 100 % of control, the T/C (dose: 100.0 mg/kg/injection, schedule: Q01DX001 (ip), vehicle: saline with Tween-80) was 97 % of control and the T/C (dose: 200.0 mg/kg/injection, schedule: Q01DX001 (ip), vehicle: saline with Tween-80) was 103 % of control. For the same compound, the T/C (dose: 400.0 mg/kg/injection, schedule: Q01DX001 (ip), vehicle: saline with Tween-80) was 101 % of control.

For `O=C(C(Oc1ccc(Cl)cc1)n1cncn1)N1CCOC1C1CCCCC1` (centres undefined), the T/C (dose: 50.0 mg/kg/injection, schedule: Q01DX001 (ip), vehicle: Klucel (hydroxypropylcellulose) (HPC)) was 103 % of control, the T/C (dose: 100.0 mg/kg/injection, schedule: Q01DX001 (ip), vehicle: Klucel (hydroxypropylcellulose) (HPC)) was 100 % of control and the T/C (dose: 200.0 mg/kg/injection, schedule: Q01DX001 (ip), vehicle: Klucel (hydroxypropylcellulose) (HPC)) was 100 % of control.

For `CCOC([O-])=N/C(C)=N/[n+]1ccccc1C`, the T/C [9] was 107 % of control, the T/C [10] was 104 % of control and the T/C [11] was 107 % of control.

With `CCOc1cccc2c1C(=O)c1c(OCC)c3c(c(OCC)c1C2=O)CC(O)(C(C)=O)CC3O` (centres undefined) the T/C (dose: 1.56 mg/kg/injection, schedule: Q01DX009 (ip), vehicle: other) was 99 % of control, the T/C (dose: 3.13 mg/kg/injection, schedule: Q01DX009 (ip), vehicle: other) was 102 % of control and the T/C (dose: 6.25 mg/kg/injection, schedule: Q01DX009 (ip), vehicle: other) was 93 % of control. For the same compound, the T/C (dose: 12.5 mg/kg/injection, schedule: Q01DX009 (ip), vehicle: other) was 96 % of control and the T/C (dose: 25.0 mg/kg/injection, schedule: Q01DX009 (ip), vehicle: other) was 90 % of control.

For `OC1COC(Sc2ncc[nH]2)C(O)C1O` (centres undefined), the T/C [12] was 97 % of control, the T/C (dose: 60.0 mg/kg/injection, schedule: Q01DX005 (ip), vehicle: saline) was 96 % of control and the T/C (dose: 120.0 mg/kg/injection, schedule: Q01DX005 (ip), vehicle: saline with Tween-80) was 97 % of control. The T/C (dose: 120.0 mg/kg/injection, schedule: Q01DX005 (ip), vehicle: saline) was 97 % of control, the T/C (dose: 240.0 mg/kg/injection, schedule: Q01DX005 (ip), vehicle: saline with Tween-80) was 94 % of control and the T/C (dose: 240.0 mg/kg/injection, schedule: Q01DX005 (ip), vehicle: saline) was 97 % of control.

With `O=C(O)c1nn(-c2ccc(Cl)cc2)c2c1C(=O)c1ccccc1C2=O` the T/C [1] was 98 % of control, the T/C [2] was 91 % of control and the T/C [3] was 98 % of control and 89 % of control. The T/C [13] was 92 % of control and the T/C [14] was 103 % of control.

In the case of `Nc1cc(C(=O)Nc2ccc(C3=NCCN3)cc2)ccc1C(=O)Nc1ccc(C2=NCCN2)cc1`, the T/C (dose: 20.0 mg/kg/injection, schedule: Q04DX003 (ip), vehicle: saline with Tween-80) is reported as 168 % of control, the T/C (dose: 30.0 mg/kg/injection, schedule: Q04DX003 (ip), vehicle: saline with Tween-80) is reported as 204 % of control and the T/C (dose: 44.0 mg/kg/injection, schedule: Q04DX003 (ip), vehicle: saline with Tween-80) is reported as 277 % of control. The T/C (dose: 66.0 mg/kg/injection, schedule: Q04DX003 (ip), vehicle: saline with Tween-80) was 181 % of control.

For `CCCC(C)C/C(C)=C/C(C)(C)C(CC(=O)N1CCOCC1)C(=O)O` (centres undefined), the T/C [7] was 100 % of control, the T/C [8] was 100 % of control and the T/C (dose: 100.0 mg/kg/injection, schedule: Q04DX003 (ip), vehicle: saline with Tween-80) was 100 % of control.

`CC(=O)NC(CCCCN)C(=O)O` (centres undefined) was tested, and the T/C [3] was 103 % of control, the T/C [13] was 101 % of control and the T/C [14] was 102 % of control.

In the case of `CC(=O)O.Cl.NC1C([O-])OC(CO)C(O)C1O.O=C1OC(C(O)CO)C([O-])=C1[OH2+].[Cu+2]` (centres undefined), the T/C (dose: 3.75 mg/kg/injection, schedule: Q01DX005 (ip), vehicle: saline with Tween-80) is reported as 107 % of control, the T/C (dose: 7.5 mg/kg/injection, schedule: Q01DX005 (ip), vehicle: saline with Tween-80) is reported as 100 % of control and the T/C (dose: 15.0 mg/kg/injection, schedule: Q01DX005 (ip), vehicle: saline with Tween-80) is reported as 98 % of control and 97 % of control. The T/C [12] was 108 % of control.

`Cc1cc2nc(Cc3nc4cc(C)c(C)cc4[nH]3)[nH]c2cc1C` was tested, and the T/C (dose: 25.0 mg/kg/injection, schedule: Q01DX009 (ip), vehicle: saline with Tween-80) was 90 % of control, the T/C (dose: 50.0 mg/kg/injection, schedule: Q01DX009 (ip), vehicle: saline with Tween-80) was 90 % of control and the T/C (dose: 100.0 mg/kg/injection, schedule: Q01DX009 (ip), vehicle: saline with Tween-80) was 100 % of control and 95 % of control. The T/C (dose: 200.0 mg/kg/injection, schedule: Q01DX009 (ip), vehicle: saline with Tween-80) was 90 % of control.

With `CN(C)S(=O)(=O)CC(O)C(Cl)(Cl)Cl` (centres undefined) the T/C [9] was 100 % of control, the T/C [10] was 98 % of control and the T/C [11] was 98 % of control.

In the case of `O=Cc1ccc(S(=O)(=O)F)cc1`, the T/C [4] is reported as 99 % of control, the T/C [5] is reported as 97 % of control and the T/C [6] is reported as 93 % of control.

`CSc1ncnc2c1c1c(N)ncnc1n2C1OC(CO)C(O)C1O` (centres undefined) was tested, and the T/C (dose: 25.0 mg/kg/injection, schedule: Q01DX005 (ip), vehicle: other) was 97 % of control, the T/C (dose: 50.0 mg/kg/injection, schedule: Q01DX005 (ip), vehicle: other) was 97 % of control and the T/C (dose: 100.0 mg/kg/injection, schedule: Q01DX005 (ip), vehicle: other) was 109 % of control. For the same compound, the T/C (dose: 200.0 mg/kg/injection, schedule: Q01DX005 (ip), vehicle: other) was 105 % of control.

With `Cc1cc2nc(C)nn2c(C)n1` the T/C (dose: 25.0 mg/kg/injection, schedule: Q04DX003 (ip), vehicle: saline) was 104 % of control, the T/C (dose: 50.0 mg/kg/injection, schedule: Q04DX003 (ip), vehicle: saline) was 96 % of control and the T/C (dose: 100.0 mg/kg/injection, schedule: Q04DX003 (ip), vehicle: saline) was 111 % of control and 88 % of control. The T/C (dose: 400.0 mg/kg/injection, schedule: Q04DX003 (ip), vehicle: saline) was 88 % of control.

`Nc1nc[nH]c1-c1noc(=O)[nH]1` was tested, and the T/C (dose: 12.5 mg/kg/injection, schedule: Q01DX009 (ip), vehicle: saline) was 102 % of control, the T/C (dose: 25.0 mg/kg/injection, schedule: Q01DX009 (ip), vehicle: saline) was 108 % of control and the T/C [9] was 104 % of control and 112 % of control. The T/C [10] was 110 % of control.

In the case of `O=C(O)C1CCC2(CC1)SCC1(CS2)CSC2(CCC(C(=O)O)CC2)SC1` (centres undefined), the T/C (dose: 7.5 mg/kg/injection, schedule: Q01DX009 (ip), vehicle: saline with Tween-80) is reported as 104 % of control, the T/C (dose: 15.0 mg/kg/injection, schedule: Q01DX009 (ip), vehicle: saline with Tween-80) is reported as 99 % of control and the T/C (dose: 30.0 mg/kg/injection, schedule: Q01DX009 (ip), vehicle: saline with Tween-80) is reported as 107 % of control.

In the case of `CCCCCCCCCCCCCCCCCC(=O)CC(=O)C(F)(F)F`, the T/C [9] is reported as 100 % of control, the T/C [10] is reported as 99 % of control and the T/C [11] is reported as 99 % of control.

`C/C=C1/CN2CCC34c5ccccc5N(C)C23C2CC1C4(C(=O)OC)C(OC(C)=O)O2` (centres undefined) was tested, and the T/C (dose: 9.25 mg/kg/injection, schedule: Q01DX005 (ip), vehicle: saline + Tween-80 + alcohol) was 96 % of control, the T/C (dose: 18.5 mg/kg/injection, schedule: Q01DX005 (ip), vehicle: saline + Tween-80 + alcohol) was 106 % of control and the T/C (dose: 37.0 mg/kg/injection, schedule: Q01DX005 (ip), vehicle: saline + Tween-80 + alcohol) was 112 % of control. For the same compound, the T/C (dose: 74.0 mg/kg/injection, schedule: Q01DX005 (ip), vehicle: saline + Tween-80 + alcohol) was 100 % of control.

In the case of `CCCCOC(=O)NC(=O)c1cc2cc(Cl)ccc2oc1=O`, the T/C (dose: 50.0 mg/kg/injection, schedule: Q01DX005 (ip), vehicle: saline with Tween-80) is reported as 95 % of control and the T/C (dose: 100.0 mg/kg/injection, schedule: Q01DX005 (ip), vehicle: saline with Tween-80) is reported as 88 % of control.
